The text below walks through data of the RepoRT retention time repository (doi:10.1016/j.jhazmat.2019.121712).

This data set is described as follows: Thermo Scientific Acclaim RSLC 120 C18, 100 × 2.1 mm, 2.2 µm, 30 °C; A: 90% water + 10% methanol + 0.01% formic acid + 5 mM ammonium formate; B: methanol + 0.01% formic acid + 5 mM ammonium formate; gradient (min/%B) 0.1/1 3/39 14/99.9 16/99.9. To be noted: stereoisomer not certain.
For `CCCCCn1cc(C(=O)c2cccc3ccccc23)cc1-c1ccccc1C`, the LC retention time was 13.4 min.
For `CCC1CN2CCc3c([nH]c4cccc(OC)c34)C2CC1C(=COC)C(=O)OC` (stereo not given) the value was 6.23 min.
For `Cc1ccc(NC(=O)NC(C)(C)c2ccccc2)cc1`, the LC retention time came to 9.68 min.
In the case of `CCCCCn1cc(C(=O)NC(C(N)=O)C(C)(C)C)c2ccccc21` (stereo not given) it was 11.1 min; in that of `CNCC1CCCCC1(O)c1cccc(O)c1` (stereo not given), 4.28 min; in that of `CCOC(=O)CCN(SN(C)C(=O)Oc1cccc2c1OC(C)(C)C2)C(C)C`, 11.9 min.
As for `CC(C)CNC(=O)N1CCNC1=O`, the LC retention time stood at 5.74 min.
For `CC(C)(ON=C(C(=O)NC1C(=O)N2C(C(=O)[O-])=C(C[n+]3ccccc3)CSC12)c1csc(N)n1)C(=O)O` (stereo not given) the value was 3.38 min.
As to `CCCCOc1ccc(CC(=O)NO)cc1`, the LC retention time was found to be 7.83 min.
In the case of `CC1(C)C(C(=O)c2cn(CC3CCOCC3)c3ccccc23)C1(C)C` it was 11.4 min; in that of `CN1CCN(CCC=C2c3ccccc3Sc3ccc(S(=O)(=O)N(C)C)cc32)CC1`, 8.38 min.
In the case of `CCC1CN2CCC3(O)C(=Nc4cccc(OC)c43)C2CC1C(=COC)C(=O)OC` (stereo not given) it was 5.95 min.
`CCCCCC(C)n1c(C)c(C(=O)c2cccc3ccccc23)c2ccccc21` (stereo not given): the LC retention time stood at 13 min.
In the case of `NC(=O)N1c2ccccc2CC(O)c2ccccc21` (stereo not given) it was 5.94 min.
For the molecule `CCCc1nn(C)c2c(=O)[nH]c(-c3cc(C(=O)CN4CCCCC4)ccc3OCC)nc12`, the LC retention time was found to be 7.14 min.
`C#CCNC(C)Cc1ccccc1` (stereo not given): the LC retention time amounted to 4.66 min.
For `CCN(CC)CCNC(=O)c1cc(S(C)(=O)=O)ccc1OC`, the LC retention time was found to be 3.41 min.
As for `C(=Cc1ccccc1)CN1CCN(C(c2ccccc2)c2ccccc2)CC1`, the LC retention time amounted to 9.86 min.
For `CN(C)CCN(Cc1ccccc1)c1ccccn1` the value was 5.86 min; for `CC(=O)N(C)N(C(=O)C(=O)N(C)C)c1ccccc1`, 5.06 min.
As for `CCCOc1ccc(C(=O)CCN2CCCCC2)cc1`, the LC retention time turned out to be 6.24 min.
`CN(C)P(=O)(OP(=O)(N(C)C)N(C)C)N(C)C`: the LC retention time is 5.36 min.
As to `CNC(=O)Oc1cccc2c1OC(C)(C)C2O` (stereo not given), the LC retention time stood at 5.09 min.
Regarding `c1cc2c(c(NC3=NCCN3)c1)CCC2`, the LC retention time is 4.76 min.
For `CCN1CCCC1CNC(=O)c1cc(S(N)(=O)=O)ccc1O` (stereo not given) the value was 3.18 min; for `CCCc1nn(C)c2c(=O)[nH]c(-c3cc(S(=O)(=O)N4CCN(C)CC4)ccc3OCC)nc12`, 7.88 min; for `CC(N)C(=O)c1ccccc1` (stereo not given), 3.59 min.
Turning to `C1COC(NC(C2CC2)C2CC2)=N1`, the LC retention time was found to be 4.4 min.
In the case of `COc1nn(CSP(=S)(OC)OC)c(=O)s1` it was 8.7 min; in that of `N#Cc1ccc2c(c1)N(CCCN1CCC(O)CC1)c1ccccc1S2`, 7.45 min; in that of `COC(C)C(O)(C(=O)OCC1=CCN2CCC(O)C12)C(C)C` (stereo not given), 4.27 min.
In the case of `CN(C)CC(CN1c2ccccc2Sc2ccccc21)N(C)C` (stereo not given) it was 8.54 min.
In the case of `COc1ccc(CC(C)N)c(OC)c1OC` (stereo not given), the LC retention time stood at 4.16 min.
As for `CCCCCn1cc(C(=O)Cc2ccc(OC)cc2)c2ccccc21`, the LC retention time is 11.6 min.
As to `CN(C)CCC=C1c2ccccc2CSc2ccccc21`, the LC retention time is 7.61 min.
On to `CCC(=O)C1C(=O)CC(C(=O)O)CC1=O` (stereo not given), for which the LC retention time was determined as 5.63 min.
For `CCc1c(C)[nH]c2c1C(=O)C(CN1CCOCC1)CC2` (stereo not given) the value was 4.89 min; for `CN1CCN(CCCN2c3ccccc3Sc3ccc(S(=O)(=O)N(C)C)cc32)CC1`, 8.15 min; for `CNc1c(C)n(C)n(-c2ccccc2)c1=O`, 4.74 min.
In the case of `OCCOCCN1CCN(C2=Nc3ccccc3Sc3ccccc32)CC1` it was 7.26 min.
Consider `O=C(O)C(c1ccccc1)C1CCCCN1` (stereo not given), for which the LC retention time is 4.61 min.
For `COc1ccc2c(c1)N(CC(C)CN(C)C)c1ccccc1S2` (stereo not given) the value was 8.14 min.
For the molecule `CC(C)(C)c1ccc(C(=O)CCCN2CCC(OC(c3ccccc3)c3ccccc3)CC2)cc1`, the LC retention time came to 10.9 min.
For `CCC(c1ccccc1)c1c(O)c2ccccc2oc1=O` (stereo not given) the value was 9.05 min; for `CCCN(CCC)C(=O)SCc1ccccc1`, 11.9 min.
Regarding `CC(N)C(O)c1ccccc1` (stereo not given), the LC retention time was 3.68 min.
Take `CCCCCCCCc1ccc(OCCO)cc1`: the LC retention time came out at 12.4 min.
In the case of `CC(CN1CCN(CCOCCO)CC1)CN1c2ccccc2Sc2ccccc21` (stereo not given), the LC retention time came out at 9.08 min.
For `CCN1CCCC1CNC(=O)c1cc(S(N)(=O)=O)ccc1OC` (stereo not given) the value was 2.94 min; for `CCCCn1cc(C(=O)c2cccc3ccccc23)c2c(O)cccc21`, 12 min.
Consider `CNCCC(Oc1cccc2ccccc12)c1cccs1` (stereo not given), for which the LC retention time amounted to 8.11 min.
In the case of `Cc1ccc(N)c(C)c1`, the LC retention time is 5.04 min.
In the case of `CCNc1nc(NC(C)C)[nH]c(=O)n1`, the LC retention time turned out to be 5.03 min.
For `NCCc1ccccc1`, the LC retention time came out at 3.57 min.
In the case of `COC(=O)Nc1nc2ccc(C(=O)c3ccccc3)cc2[nH]1` it was 8.25 min; in that of `C=CC(N)CCC(=O)O` (stereo not given), 1.38 min.
In the case of `CCOP(=S)(OCC)Oc1ccc([N+](=O)[O-])cc1` it was 10.7 min.
For `CCOC(=O)CCN(Cc1ccccc1)SN(C)C(=O)ON=C(C)SC`, the LC retention time was found to be 10.8 min.
For `CC12CCC(=O)C=C1CCC1C2C(O)CC2(C)C1CCC2(O)C(=O)CO` (stereo not given) the value was 7.84 min; for `CCN1CC2(COC)C(O)CC(OC)C34C5CC6(O)C(OC)C(O)C(OC(C)=O)(C5C6OC(=O)c5ccccc5)C(C(OC)C23)C14` (stereo not given), 7.09 min; for `CC12CCC(O)CC1CCC1C2C(=O)CC2(C)C1CCC2(O)C(=O)CO` (stereo not given), 9.21 min.
Regarding `COCCCNc1nc(NC(C)C)nc(SC)n1`, the LC retention time amounted to 9.14 min.
In the case of `Cc1cc(O)ccc1CC(C)N` (stereo not given) it was 2.98 min; in that of `Cc1occc1C(=O)Nc1ccccc1`, 7.59 min; in that of `CN(C)CCc1c[nH]c2ccc(O)cc12`, 2.82 min.
For `COc1ccc2[nH]cc(CCN(C(C)C)C(C)C)c2c1` the value was 4.81 min; for `CC(C(=O)O)c1ccc(CC(C)(C)O)cc1` (stereo not given), 7.08 min.
As to `Cc1ccnc(NS(=O)(=O)c2ccc(N)cc2)n1`, the LC retention time was found to be 3.95 min.
In the case of `CCCCCn1nc(C(=O)NC(C)(C)c2ccccc2)c2ccccc21` it was 12.5 min; in that of `CC[N+]([O-])(CC)CC(=O)Nc1c(C)cccc1C`, 5.34 min; in that of `COc1ccc(CC2c3cc(OC)c(OC)cc3CCN2C)cc1OC` (stereo not given), 4.71 min.
On to `CNC(=O)Oc1cc(C)cc(C(C)C)c1`, for which the LC retention time was found to be 9.51 min.
Take `O=C1CC2OCC=C3CN4CCC56c7ccccc7N1C5C2C3CC46` (stereo not given): the LC retention time was determined as 4.16 min.
In the case of `CNCC(C)CN1c2ccccc2CCc2ccccc21` (stereo not given) it was 8.49 min; in that of `O=C(c1cccc2ccccc12)c1cn(CCCCO)c2ccccc12`, 9.56 min.
For `CNC(=O)Oc1cccc2c1OC(C)(C)O2` the value was 7.02 min; for `COc1ccc(NS(=O)(=O)c2ccc(N)cc2)nn1`, 4.38 min.
For `CC(O)CCCn1cc(C(=O)c2cccc3ccccc23)c2ccccc21` (stereo not given) the value was 10.1 min; for `CN1C2CC(OC(=O)C(CO)c3ccccc3)CC1C1OC12` (stereo not given), 3.83 min.
Turning to `c1ccc(CN2CCNCC2)cc1`, the LC retention time came to 4.23 min.
In the case of `CCOc1ccc(NC(=O)OC(C)C)cc1OCC`, the LC retention time was 9.04 min.
In the case of `CN(C)CCN(Cc1cccs1)c1ccccc1` it was 6.32 min; in that of `CCC(C)CC(C)N` (stereo not given), 4.68 min; in that of `CCC(C)c1ccccc1OC(=O)NC` (stereo not given), 9.05 min.
Turning to `N#CCCCCn1cc(C(=O)c2cccc3ccccc23)c2ccccc21`, the LC retention time was 9.69 min.
For `CC(CCN1CCOCC1)OC(=O)C1(c2ccccc2)CCOCC1` (stereo not given) the value was 6.12 min; for `CCCCN(CCCC)CCCC`, 5.28 min; for `CCC(CO)NC(=O)C1C=C2c3cccc4[nH]cc(c34)CC2N(C)C1` (stereo not given), 4.34 min.
Regarding `CN=C(NC)NCc1ccccc1`, the LC retention time turned out to be 3.97 min.
For the molecule `CCOP(=O)(SC(C)CC)N1CCSC1=O` (stereo not given), the LC retention time amounted to 7.73 min.
With `CCc1ccc(CCOc2ccc(CC3SC(=O)NC3=O)cc2)nc1` (stereo not given), the LC retention time was found to be 9.09 min.
For `CCCCCn1cc(C(=O)Nc2cccc3ccccc23)c2ccccc21` the value was 11.7 min; for `CC(=O)OC1C=CC2C3Cc4ccc(O)c5c4C2(CCN3C)C1O5` (stereo not given), 3.75 min; for `CCCCCn1cc(C(=O)C23CC4CC(CC(C4)C2)C3)c2ccccc21`, 13.7 min.
With `CNC(=O)Oc1ccc2c(c1)C1(C)CCN(C)C1N2C` (stereo not given), the LC retention time is 3.89 min.
In the case of `OCC(O)CN1CCN(c2ccccc2)CC1` (stereo not given) it was 3.79 min.
In the case of `C#CC1(OC(C)=O)CCC2C3CCC4=CC(=O)CCC4C3CCC21C` (stereo not given) it was 10.8 min; in that of `Cc1noc(NS(=O)(=O)c2ccc(N)cc2)c1C`, 4.71 min; in that of `COc1ccc2c(c1OC)C(=O)OC2C1c2c(cc3c(c2OC)OCO3)CCN1C` (stereo not given), 6.96 min.
For `CNC(=O)Oc1cc(C)c(SC)c(C)c1` the value was 9.34 min.
